Measured values from ChEMBL document CHEMBL5463727, “Data for DCP probe SGK3-PROTAC1” (2023).

How the values were obtained:
[1] = molecular target: Serine/threonine-protein kinase PAK 5 (Homo sapiens) (UniProt Q9P286); experiment: % Activity remaining of PAK5 in the Dundee kinase panel at 1.0 µM; settings: Compound concentration 1.0 uM
[2] = molecular target: Dual specificity mitogen-activated protein kinase kinase 2 (Homo sapiens) (UniProt P36507); experiment: % Activity remaining of MKK2 in the Dundee kinase panel at 1.0 µM; settings: Compound concentration 1.0 uM
[3] = molecular target: Myosin light chain kinase, smooth muscle (Homo sapiens) (UniProt Q15746); experiment: % Activity remaining of SmMLCK in the Dundee kinase panel at 1.0 µM; settings: Compound concentration 1.0 uM
[4] = molecular target: Serine/threonine-protein kinase Nek6 (Homo sapiens) (UniProt Q9HC98); experiment: % Activity remaining of NEK6 in the Dundee kinase panel at 1.0 µM; settings: Compound concentration 1.0 uM
[5] = molecular target: Ephrin type-A receptor 2 (Homo sapiens) (UniProt P29317); experiment: % Activity remaining of EPH-A2 in the Dundee kinase panel at 1.0 µM; settings: Compound concentration 1.0 uM
Ephrin type-A receptor 2 (Homo sapiens), sequence (P29317 whole entry): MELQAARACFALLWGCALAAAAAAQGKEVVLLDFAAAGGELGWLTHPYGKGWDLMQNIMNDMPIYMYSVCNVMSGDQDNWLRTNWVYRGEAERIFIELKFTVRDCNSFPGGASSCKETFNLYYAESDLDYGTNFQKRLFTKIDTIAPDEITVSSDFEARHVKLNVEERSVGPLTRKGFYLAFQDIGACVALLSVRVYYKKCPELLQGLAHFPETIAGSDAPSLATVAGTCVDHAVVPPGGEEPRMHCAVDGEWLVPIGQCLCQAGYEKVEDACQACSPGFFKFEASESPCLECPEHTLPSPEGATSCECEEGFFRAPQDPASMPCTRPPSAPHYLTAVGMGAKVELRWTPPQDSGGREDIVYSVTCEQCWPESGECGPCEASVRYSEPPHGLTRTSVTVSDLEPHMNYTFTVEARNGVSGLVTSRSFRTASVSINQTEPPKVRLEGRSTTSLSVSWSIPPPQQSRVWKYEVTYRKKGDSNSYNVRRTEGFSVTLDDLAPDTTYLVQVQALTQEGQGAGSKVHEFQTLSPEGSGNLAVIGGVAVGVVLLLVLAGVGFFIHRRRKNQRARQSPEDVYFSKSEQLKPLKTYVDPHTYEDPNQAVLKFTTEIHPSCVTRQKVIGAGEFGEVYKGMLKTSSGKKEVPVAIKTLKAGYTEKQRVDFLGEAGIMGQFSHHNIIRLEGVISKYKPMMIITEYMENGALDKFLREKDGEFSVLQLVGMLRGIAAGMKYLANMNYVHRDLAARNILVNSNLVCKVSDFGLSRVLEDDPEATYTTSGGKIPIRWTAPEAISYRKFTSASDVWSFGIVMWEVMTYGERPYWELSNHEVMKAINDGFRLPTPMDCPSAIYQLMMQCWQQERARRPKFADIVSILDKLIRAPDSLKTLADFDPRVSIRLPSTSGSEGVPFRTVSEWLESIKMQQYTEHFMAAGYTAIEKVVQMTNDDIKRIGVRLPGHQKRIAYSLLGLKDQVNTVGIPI

[6] = molecular target: RAC-beta serine/threonine-protein kinase (Homo sapiens) (UniProt P31751); experiment: % Activity remaining of PKB beta in the Dundee kinase panel at 1.0 µM; settings: Compound concentration 1.0 uM
[7] = molecular target: Serine/threonine-protein kinase ULK1 (Homo sapiens) (UniProt O75385); experiment: % Activity remaining of ULK1 in the Dundee kinase panel at 1.0 µM; settings: Compound concentration 1.0 uM
[8] = molecular target: Serine/threonine-protein kinase SIK3 (Homo sapiens) (UniProt Q9Y2K2); experiment: % Activity remaining of SIK3 in the Dundee kinase panel at 1.0 µM; settings: Compound concentration 1.0 uM
[9] = molecular target: Mitogen-activated protein kinase kinase kinase 5 (Homo sapiens) (UniProt Q99683); experiment: % Activity remaining of ASK1 in the Dundee kinase panel at 1.0 µM; settings: Compound concentration 1.0 uM
[10] = molecular target: Serine/threonine-protein kinase PAK 2 (Homo sapiens) (UniProt Q13177); experiment: % Activity remaining of PAK2 in the Dundee kinase panel at 1.0 µM; settings: Compound concentration 1.0 uM
[11] = molecular target: Dual specificity protein kinase TTK (Homo sapiens) (UniProt P33981); experiment: % Activity remaining of TTK in the Dundee kinase panel at 1.0 µM; settings: Compound concentration 1.0 uM
[12] = molecular target: Receptor-interacting serine/threonine-protein kinase 2 (Homo sapiens) (UniProt O43353); experiment: % Activity remaining of RIPK2 in the Dundee kinase panel at 1.0 µM; settings: Compound concentration 1.0 uM
Receptor-interacting serine/threonine-protein kinase 2 (Homo sapiens), sequence (O43353 whole entry): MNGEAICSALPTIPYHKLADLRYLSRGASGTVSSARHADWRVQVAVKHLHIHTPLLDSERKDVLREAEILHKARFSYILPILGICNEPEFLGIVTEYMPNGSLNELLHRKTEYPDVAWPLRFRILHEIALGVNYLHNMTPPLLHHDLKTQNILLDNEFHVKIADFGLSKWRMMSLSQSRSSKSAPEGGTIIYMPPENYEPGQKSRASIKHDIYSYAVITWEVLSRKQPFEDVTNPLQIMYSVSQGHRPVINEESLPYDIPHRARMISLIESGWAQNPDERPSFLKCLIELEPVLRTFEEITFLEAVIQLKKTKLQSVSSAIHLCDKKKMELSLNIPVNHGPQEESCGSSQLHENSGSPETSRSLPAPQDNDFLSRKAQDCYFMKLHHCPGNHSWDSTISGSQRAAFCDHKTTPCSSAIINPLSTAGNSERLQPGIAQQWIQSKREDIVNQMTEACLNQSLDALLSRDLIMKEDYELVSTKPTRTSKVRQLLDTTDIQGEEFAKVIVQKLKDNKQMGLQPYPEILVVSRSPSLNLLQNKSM

[13] = molecular target: Serine/threonine-protein kinase Chk2 (Homo sapiens) (UniProt O96017); experiment: % Activity remaining of CHK2 in the Dundee kinase panel at 1.0 µM; settings: Compound concentration 1.0 uM
[14] = molecular target: SRSF protein kinase 1 (Homo sapiens) (UniProt Q96SB4); experiment: % Activity remaining of SRPK1 in the Dundee kinase panel at 1.0 µM; settings: Compound concentration 1.0 uM
SRSF protein kinase 1 (Homo sapiens), sequence (Q96SB4 whole entry): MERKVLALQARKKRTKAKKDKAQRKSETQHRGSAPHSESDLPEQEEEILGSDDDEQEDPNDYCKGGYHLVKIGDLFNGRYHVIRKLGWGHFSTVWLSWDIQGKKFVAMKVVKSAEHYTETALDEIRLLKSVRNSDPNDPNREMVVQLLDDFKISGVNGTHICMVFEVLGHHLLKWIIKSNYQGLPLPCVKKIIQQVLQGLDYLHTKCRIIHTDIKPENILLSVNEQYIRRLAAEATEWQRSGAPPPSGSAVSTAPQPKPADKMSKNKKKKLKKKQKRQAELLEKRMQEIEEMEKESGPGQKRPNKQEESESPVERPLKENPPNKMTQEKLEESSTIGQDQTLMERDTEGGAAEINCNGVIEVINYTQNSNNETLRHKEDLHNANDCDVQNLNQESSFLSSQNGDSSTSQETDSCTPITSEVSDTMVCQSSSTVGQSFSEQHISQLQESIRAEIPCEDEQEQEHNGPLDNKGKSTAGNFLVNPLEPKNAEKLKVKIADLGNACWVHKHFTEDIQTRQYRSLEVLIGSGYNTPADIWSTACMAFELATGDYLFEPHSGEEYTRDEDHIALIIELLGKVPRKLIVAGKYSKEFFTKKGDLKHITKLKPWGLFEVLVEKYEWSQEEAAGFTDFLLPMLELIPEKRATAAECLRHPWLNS

[15] = molecular target: Serine/threonine-protein kinase PAK 4 (Homo sapiens) (UniProt O96013); experiment: % Activity remaining of PAK4 in the Dundee kinase panel at 1.0 µM; settings: Compound concentration 1.0 uM
[16] = molecular target: MAP kinase-interacting serine/threonine-protein kinase 2 (Homo sapiens) (UniProt Q9HBH9); experiment: % Activity remaining of MNK2 in the Dundee kinase panel at 1.0 µM; settings: Compound concentration 1.0 uM
[17] = molecular target: Tyrosine-protein kinase Lck (Homo sapiens) (UniProt P06239); experiment: % Activity remaining of Lck in the Dundee kinase panel at 1.0 µM; settings: Compound concentration 1.0 uM
[18] = molecular target: Homeodomain-interacting protein kinase 3 (Homo sapiens) (UniProt Q9H422); experiment: % Activity remaining of HIPK3 in the Dundee kinase panel at 1.0 µM; settings: Compound concentration 1.0 uM
[19] = molecular target: Ephrin type-A receptor 4 (Homo sapiens) (UniProt P54764); experiment: % Activity remaining of EPH-A4 in the Dundee kinase panel at 1.0 µM; settings: Compound concentration 1.0 uM
Ephrin type-A receptor 4 (Homo sapiens), sequence (P54764 whole entry): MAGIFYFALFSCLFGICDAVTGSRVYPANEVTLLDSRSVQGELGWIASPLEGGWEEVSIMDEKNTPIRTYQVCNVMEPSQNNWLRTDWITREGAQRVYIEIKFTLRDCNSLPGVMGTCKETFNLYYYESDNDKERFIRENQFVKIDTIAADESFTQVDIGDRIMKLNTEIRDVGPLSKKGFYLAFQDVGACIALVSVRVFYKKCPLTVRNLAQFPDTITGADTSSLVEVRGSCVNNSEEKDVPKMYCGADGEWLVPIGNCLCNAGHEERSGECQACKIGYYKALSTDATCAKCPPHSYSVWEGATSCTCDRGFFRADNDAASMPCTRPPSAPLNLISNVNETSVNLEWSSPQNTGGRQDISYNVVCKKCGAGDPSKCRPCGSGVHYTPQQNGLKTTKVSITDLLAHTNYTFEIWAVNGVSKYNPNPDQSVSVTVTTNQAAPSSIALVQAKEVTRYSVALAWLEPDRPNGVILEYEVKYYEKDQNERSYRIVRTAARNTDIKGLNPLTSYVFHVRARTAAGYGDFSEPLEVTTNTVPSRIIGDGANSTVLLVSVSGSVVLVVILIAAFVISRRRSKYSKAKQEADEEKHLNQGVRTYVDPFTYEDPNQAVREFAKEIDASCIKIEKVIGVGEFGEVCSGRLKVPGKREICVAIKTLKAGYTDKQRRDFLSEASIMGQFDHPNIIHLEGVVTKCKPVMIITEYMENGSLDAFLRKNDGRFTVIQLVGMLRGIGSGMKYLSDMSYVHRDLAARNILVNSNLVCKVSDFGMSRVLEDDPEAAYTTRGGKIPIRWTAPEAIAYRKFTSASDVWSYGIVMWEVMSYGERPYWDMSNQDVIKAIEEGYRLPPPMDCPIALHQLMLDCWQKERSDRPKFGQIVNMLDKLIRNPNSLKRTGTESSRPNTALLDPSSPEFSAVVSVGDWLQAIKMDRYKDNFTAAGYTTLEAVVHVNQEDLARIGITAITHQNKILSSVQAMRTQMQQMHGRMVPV

[20] = molecular target: Eukaryotic elongation factor 2 kinase (Homo sapiens) (UniProt O00418); experiment: % Activity remaining of EF2K in the Dundee kinase panel at 1.0 µM; settings: Compound concentration 1.0 uM
[21] = molecular target: Tyrosine-protein kinase ABL1 (Homo sapiens) (UniProt P00519); experiment: % Activity remaining of ABL in the Dundee kinase panel at 1.0 µM; settings: Compound concentration 1.0 uM
[22] = molecular target: Serine/threonine-protein kinase 26 (Homo sapiens) (UniProt Q9P289); experiment: % Activity remaining of MST4 in the Dundee kinase panel at 1.0 µM; settings: Compound concentration 1.0 uM
[23] = molecular target: Serine/threonine-protein kinase ULK2 (Homo sapiens) (UniProt Q8IYT8); experiment: % Activity remaining of ULK2 in the Dundee kinase panel at 1.0 µM; settings: Compound concentration 1.0 uM
[24] = molecular target: Serine/threonine-protein kinase PINK1, mitochondrial (Homo sapiens) (UniProt Q9BXM7); experiment: % Activity remaining of PINK in the Dundee kinase panel at 1.0 µM; settings: Compound concentration 1.0 uM
Serine/threonine-protein kinase PINK1, mitochondrial (Homo sapiens), sequence (Q9BXM7 whole entry): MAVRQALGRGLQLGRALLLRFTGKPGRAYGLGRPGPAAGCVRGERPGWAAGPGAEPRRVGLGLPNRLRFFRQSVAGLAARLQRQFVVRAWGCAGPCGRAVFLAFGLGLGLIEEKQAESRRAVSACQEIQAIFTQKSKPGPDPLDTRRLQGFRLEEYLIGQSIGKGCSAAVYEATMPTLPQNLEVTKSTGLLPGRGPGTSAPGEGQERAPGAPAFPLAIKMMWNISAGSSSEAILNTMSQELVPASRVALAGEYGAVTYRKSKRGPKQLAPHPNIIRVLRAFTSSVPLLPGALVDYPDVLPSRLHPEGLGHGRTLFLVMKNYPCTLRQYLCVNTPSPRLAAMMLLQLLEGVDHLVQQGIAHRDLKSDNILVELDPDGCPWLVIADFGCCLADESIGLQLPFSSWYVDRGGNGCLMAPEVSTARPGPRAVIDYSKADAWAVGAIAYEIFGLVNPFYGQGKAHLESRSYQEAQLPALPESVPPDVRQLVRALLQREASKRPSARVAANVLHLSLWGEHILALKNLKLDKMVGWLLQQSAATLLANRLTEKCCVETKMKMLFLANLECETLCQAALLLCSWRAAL

[25] = molecular target: CDK9/cyclin T1 (Homo sapiens) (UniProt O60563+P50750); experiment: % Activity remaining of CDK9-Cyclin T1 in the Dundee kinase panel at 1.0 µM; format: protein-complex assay; settings: Compound concentration 1.0 uM
[26] = molecular target: Mitogen-activated protein kinase 13 (Homo sapiens) (UniProt O15264); experiment: % Activity remaining of p38 delta MAPK in the Dundee kinase panel at 1.0 µM; settings: Compound concentration 1.0 uM
[27] = molecular target: Phosphorylase b kinase regulatory subunit alpha, liver isoform (Homo sapiens) (UniProt P46019); experiment: % Activity remaining of PHK in the Dundee kinase panel at 1.0 µM; settings: Compound concentration 1.0 uM
[28] = molecular target: Tyrosine-protein kinase SYK (Homo sapiens) (UniProt P43405); experiment: % Activity remaining of SYK in the Dundee kinase panel at 1.0 µM; settings: Compound concentration 1.0 uM
[29] = molecular target: Casein kinase I isoform gamma-2 (Homo sapiens) (UniProt P78368); experiment: % Activity remaining of CK1 gamma 2 in the Dundee kinase panel at 1.0 µM; settings: Compound concentration 1.0 uM
[30] = molecular target: Ribosomal protein S6 kinase beta-1 (Homo sapiens, UniProt P23443); experiment: % Activity remaining of S6K1 in the Dundee kinase panel at 1.0 µM; settings: for % Activity remaining: Compound concentration 1.0 uM
[31] = molecular target: Mitogen-activated protein kinase kinase kinase 1 (Homo sapiens) (UniProt Q13233); experiment: % Activity remaining of MEKK1 in the Dundee kinase panel at 1.0 µM; settings: Compound concentration 1.0 uM
[32] = molecular target: Serine/threonine-protein kinase pim-3 (Homo sapiens) (UniProt Q86V86); experiment: % Activity remaining of PIM3 in the Dundee kinase panel at 1.0 µM; settings: Compound concentration 1.0 uM
[33] = molecular target: Ribosomal protein S6 kinase alpha-5 (Homo sapiens) (UniProt O75582); experiment: % Activity remaining of MSK1 in the Dundee kinase panel at 1.0 µM; settings: Compound concentration 1.0 uM
[34] = molecular target: Mitogen-activated protein kinase kinase kinase 11 (Homo sapiens) (UniProt Q16584); experiment: % Activity remaining of MLK3 in the Dundee kinase panel at 1.0 µM; settings: Compound concentration 1.0 uM
Mitogen-activated protein kinase kinase kinase 11 (Homo sapiens), sequence (Q16584 whole entry, looked up): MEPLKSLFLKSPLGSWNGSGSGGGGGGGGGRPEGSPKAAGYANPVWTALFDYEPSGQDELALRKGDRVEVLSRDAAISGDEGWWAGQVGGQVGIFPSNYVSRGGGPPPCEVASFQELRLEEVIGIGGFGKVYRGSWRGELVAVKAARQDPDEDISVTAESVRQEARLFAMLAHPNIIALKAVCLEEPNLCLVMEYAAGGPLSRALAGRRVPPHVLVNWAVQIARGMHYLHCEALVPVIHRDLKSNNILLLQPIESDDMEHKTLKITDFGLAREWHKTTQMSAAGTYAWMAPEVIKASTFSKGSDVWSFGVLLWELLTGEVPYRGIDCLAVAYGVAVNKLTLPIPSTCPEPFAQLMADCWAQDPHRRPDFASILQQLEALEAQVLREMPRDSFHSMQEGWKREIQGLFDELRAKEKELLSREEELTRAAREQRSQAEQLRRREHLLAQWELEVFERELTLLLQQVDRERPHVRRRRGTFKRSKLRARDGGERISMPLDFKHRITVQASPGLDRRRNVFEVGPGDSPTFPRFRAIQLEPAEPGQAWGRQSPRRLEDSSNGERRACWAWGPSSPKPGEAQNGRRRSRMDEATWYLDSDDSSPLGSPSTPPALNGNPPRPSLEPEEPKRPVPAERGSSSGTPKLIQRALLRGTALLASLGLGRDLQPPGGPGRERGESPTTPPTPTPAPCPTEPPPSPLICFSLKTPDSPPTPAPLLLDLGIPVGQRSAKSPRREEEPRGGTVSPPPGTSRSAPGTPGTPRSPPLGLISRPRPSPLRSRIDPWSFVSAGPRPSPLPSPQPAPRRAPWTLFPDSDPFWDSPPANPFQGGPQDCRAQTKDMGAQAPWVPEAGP

[35] = molecular target: Tyrosine-protein kinase CSK (Homo sapiens) (UniProt P41240); experiment: % Activity remaining of CSK in the Dundee kinase panel at 1.0 µM; settings: Compound concentration 1.0 uM
Tyrosine-protein kinase CSK (Homo sapiens), sequence (P41240 2-450 limits assumed): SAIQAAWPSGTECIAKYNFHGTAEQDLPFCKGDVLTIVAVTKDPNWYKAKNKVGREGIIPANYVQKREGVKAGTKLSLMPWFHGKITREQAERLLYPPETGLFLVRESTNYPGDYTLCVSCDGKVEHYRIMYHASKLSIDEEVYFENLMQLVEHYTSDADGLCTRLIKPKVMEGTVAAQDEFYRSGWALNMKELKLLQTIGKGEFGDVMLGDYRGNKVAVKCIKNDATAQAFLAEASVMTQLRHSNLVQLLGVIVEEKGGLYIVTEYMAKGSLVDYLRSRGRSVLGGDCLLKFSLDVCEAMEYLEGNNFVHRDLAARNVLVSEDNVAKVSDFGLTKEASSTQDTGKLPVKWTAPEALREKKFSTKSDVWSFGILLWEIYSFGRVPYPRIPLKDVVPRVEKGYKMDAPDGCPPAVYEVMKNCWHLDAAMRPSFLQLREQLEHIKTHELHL

[36] = molecular target: Mitogen-activated protein kinase 15 (Homo sapiens) (UniProt Q8TD08); experiment: % Activity remaining of ERK8 in the Dundee kinase panel at 1.0 µM; settings: Compound concentration 1.0 uM
[37] = molecular target: Serine/threonine-protein kinase Chk1 (Homo sapiens) (UniProt O14757); experiment: % Activity remaining of CHK1 in the Dundee kinase panel at 1.0 µM; settings: Compound concentration 1.0 uM
[38] = molecular target: Vascular endothelial growth factor receptor 1 (Homo sapiens) (UniProt P17948); experiment: % Activity remaining of VEGFR1 in the Dundee kinase panel at 1.0 µM; settings: Compound concentration 1.0 uM
[39] = molecular target: Mitogen-activated protein kinase 8 (Homo sapiens) (UniProt P45983); experiment: % Activity remaining of JNK1 in the Dundee kinase panel at 1.0 µM; settings: Compound concentration 1.0 uM

% Activity remaining [1]	% Activity remaining [2]	% Activity remaining [3]	% Activity remaining [4]	% Activity remaining [5]	% Activity remaining [6]	% Activity remaining [7]	% Activity remaining [8]	% Activity remaining [9]	% Activity remaining [10]	% Activity remaining [11]	% Activity remaining [12]	% Activity remaining [13]	% Activity remaining [14]	% Activity remaining [15]	% Activity remaining [16]	% Activity remaining [17]	% Activity remaining [18]	% Activity remaining [19]	% Activity remaining [20]	Structure (SMILES)	other results
105%	124%	70.7%	111%	104%	101%	112%	117%	102%	98.7%	99.4%	94.2%	99.1%	104%	113%	122%	116%	105%	89.4%	105%	Cc1ccc(F)c(S(=O)(=O)Nc2ccc(-c3nc(OC[C@H]4CN(CCCCCCOCCOCCOCC(=O)N[C@H](C(=O)N5C[C@@H](O)C[C@H]5C(=O)NCc5ccc(-c6scnc6C)cc5)C(C)(C)C)CCO4)c4cn[nH]c4n3)cc2)c1	% Activity remaining [21]: 112%; % Activity remaining [22]: 99%; % Activity remaining [23]: 117%; % Activity remaining [24]: 109%; % Activity remaining [25]: 105%; % Activity remaining [26]: 121%; % Activity remaining [27]: 122%; % Activity remaining [28]: 103%; % Activity remaining [29]: 106%; IC50 [30]: 1700 nM; % Activity remaining [30]: 20.2%; % Activity remaining [31]: 128%; % Activity remaining [32]: 88.8%; % Activity remaining [33]: 56.5%; % Activity remaining [34]: 75.6%; % Activity remaining [35]: 113%; % Activity remaining [36]: 86.4%; % Activity remaining [37]: 126%; % Activity remaining [38]: 103%; % Activity remaining [39]: 119%
87.6%	114%	52.9%	106%	94.2%	98.7%	116%	78.7%	113%	116%	89.4%	88.4%	84.8%	95.8%	81.1%	122%	124%	111%	106%	97.5%	Cc1ccc(F)c(S(=O)(=O)Nc2ccc(-c3nc(OC[C@H]4CN(CCCCCCOCCOCCOCC(=O)N[C@H](C(=O)N5C[C@H](O)C[C@H]5C(=O)NCc5ccc(-c6scnc6C)cc5)C(C)(C)C)CCO4)c4cn[nH]c4n3)cc2)c1	% Activity remaining [21]: 111%; % Activity remaining [22]: 106%; % Activity remaining [23]: 103%; % Activity remaining [24]: 108%; % Activity remaining [25]: 103%; % Activity remaining [26]: 103%; % Activity remaining [27]: 113%; % Activity remaining [28]: 116%; % Activity remaining [29]: 101%; IC50 [30]: 1800 nM; % Activity remaining [30]: 19%; % Activity remaining [31]: 124%; % Activity remaining [32]: 88.1%; % Activity remaining [33]: 49.6%; % Activity remaining [34]: 70.5%; % Activity remaining [35]: 118%; % Activity remaining [36]: 94.2%; % Activity remaining [37]: 111%; % Activity remaining [38]: 120%; % Activity remaining [39]: 117%
